Assay results: the CheMixHub viscosity set

Experiment: xn = mol fraction of the nth substance listed

Cc1ccc(O)cc1 + Cc1cccc(O)c1
Conditions | viscosity [mPa·s]
298.15 K, 101 kPa, x2 = 0.1388 | 14.5
298.15 K, 101 kPa, x2 = 0.2461 | 14.32
298.15 K, 101 kPa, x2 = 0.3003 | 14.25
298.15 K, 101 kPa, x2 = 0.452 | 14
298.15 K, 101 kPa, x2 = 0.4823 | 13.93
298.15 K, 101 kPa, x2 = 0.5521 | 13.85
298.15 K, 101 kPa, x2 = 0.6238 | 13.73
298.15 K, 101 kPa, x2 = 0.6733 | 13.69
298.15 K, 101 kPa, x2 = 0.7071 | 13.61
298.15 K, 101 kPa, x2 = 0.7373 | 13.6
298.15 K, 101 kPa, x2 = 0.8267 | 13.52
298.15 K, 101 kPa, x2 = 0.9135 | 13.46
313.15 K, 101.3 kPa, x2 = 0.1 | 6.798
313.15 K, 101.3 kPa, x2 = 0.2 | 6.861
313.15 K, 101.3 kPa, x2 = 0.3 | 6.878
313.15 K, 101.3 kPa, x2 = 0.4 | 6.855
313.15 K, 101.3 kPa, x2 = 0.5 | 6.75
313.15 K, 101.3 kPa, x2 = 0.6 | 6.625
313.15 K, 101.3 kPa, x2 = 0.7 | 6.547
313.15 K, 101.3 kPa, x2 = 0.8 | 6.409
313.15 K, 101.3 kPa, x2 = 0.9 | 6.321
323.15 K, 101.3 kPa, x2 = 0.1 | 4.564
323.15 K, 101.3 kPa, x2 = 0.2 | 4.653
323.15 K, 101.3 kPa, x2 = 0.3 | 4.653
323.15 K, 101.3 kPa, x2 = 0.4 | 4.618
323.15 K, 101.3 kPa, x2 = 0.5 | 4.54
323.15 K, 101.3 kPa, x2 = 0.6 | 4.439
323.15 K, 101.3 kPa, x2 = 0.7 | 4.337
323.15 K, 101.3 kPa, x2 = 0.8 | 4.246
323.15 K, 101.3 kPa, x2 = 0.9 | 4.175

CC(O)CC(C)(C)O (centres undefined) + Cc1ccccc1
viscosity [mPa·s], 101 kPa
Conditions | x1 = 0.1346 | x1 = 0.1954 | x1 = 0.2938 | x1 = 0.3816 | x1 = 0.4929 | x1 = 0.5952 | x1 = 0.6969 | x1 = 0.7998 | x1 = 0.8958
308.15 K | 0.6243 | 0.7011 | 0.8906 | 1.182 | 1.708 | 2.106 | 3.293 | 5.905 | 9.863
318.15 K | 0.4797 | 0.5572 | 0.739 | 0.983 | 1.41 | 1.753 | 2.719 | 4.872 | 8.571

Cc1ccc(O)cc1 + Cc1ccccc1
308.15 K, 101 kPa
Conditions | viscosity [mPa·s]
x1 = 0.0324 | 0.5202
x1 = 0.0983 | 0.5823
x1 = 0.2079 | 0.7295
x1 = 0.305 | 0.9088
x1 = 0.417 | 1.201
x1 = 0.58 | 1.867
x1 = 0.6813 | 2.636
x1 = 0.7299 | 3.2
x1 = 0.8385 | 4.646
x1 = 0.8532 | 5.08
x1 = 0.9349 | 6.873

O=S(=O)(Cl)Cl + Cc1ccccc1
298.15 K, 101 kPa
Conditions | viscosity [mPa·s]
x1 = 0.207 | 0.5841
x1 = 0.373 | 0.6144
x1 = 0.572 | 0.6457
x1 = 0.713 | 0.6642
x1 = 0.826 | 0.6759

O=S1(=O)CCCC1 + Cc1ccccc1
viscosity [mPa·s], 101.3 kPa
Conditions | x2 = 0.1267 | x2 = 0.2458 | x2 = 0.3587 | x2 = 0.4651 | x2 = 0.5662 | x2 = 0.6617 | x2 = 0.7527 | x2 = 0.8392 | x2 = 0.9206
303.15 K | 6.052 | 3.95 | 2.732 | 2.029 | 1.557 | 1.173 | 0.9289 | 0.7548 | 0.6265
323.15 K | 3.906 | 2.662 | 1.919 | 1.458 | 1.151 | 0.8828 | 0.7151 | 0.5893 | 0.4967

O=S1(=O)CCCC1 + Cc1ccccc1C
viscosity [mPa·s], 101.3 kPa
Conditions | x2 = 0.1118 | x2 = 0.2206 | x2 = 0.3267 | x2 = 0.4301 | x2 = 0.5311 | x2 = 0.6293 | x2 = 0.7254 | x2 = 0.8191 | x2 = 0.9105
303.15 K | 6.89 | 4.875 | 3.582 | 2.692 | 2.066 | 1.618 | 1.243 | 1.04 | 0.8453
323.15 K | 4.358 | 3.169 | 2.397 | 1.854 | 1.456 | 1.173 | 0.9211 | 0.8044 | 0.6503

Nc1ccccc1Cl + Cc1ccccc1Cl
viscosity [mPa·s], 101 kPa
Conditions | x1 = 0.11 | x1 = 0.2176 | x1 = 0.3228 | x1 = 0.4258 | x1 = 0.5266 | x1 = 0.6253 | x1 = 0.7219 | x1 = 0.8165 | x1 = 0.9092
303.15 K | 1.073 | 1.284 | 1.521 | 1.782 | 2.069 | 2.379 | 2.711 | 3.065 | 3.437
308.15 K | 0.9808 | 1.175 | 1.392 | 1.63 | 1.888 | 2.164 | 2.458 | 2.765 | 3.084
313.15 K | 0.8896 | 1.07 | 1.271 | 1.49 | 1.726 | 1.976 | 2.238 | 2.507 | 2.783
318.15 K | 0.7935 | 0.9642 | 1.153 | 1.358 | 1.578 | 1.808 | 2.045 | 2.286 | 2.526

CCCCOCCOCCO + ClC(Cl)(Cl)Cl
298.15 K, 101.33 kPa
Conditions | viscosity [mPa·s]
x1 = 0.02 | 0.948
x1 = 0.038 | 0.989
x1 = 0.0629 | 1.05
x1 = 0.0892 | 1.14
x1 = 0.1363 | 1.29
x1 = 0.18 | 1.442
x1 = 0.2249 | 1.63
x1 = 0.2644 | 1.796
x1 = 0.3052 | 1.974
x1 = 0.4307 | 2.594
x1 = 0.4809 | 2.841
x1 = 0.5267 | 3.065
x1 = 0.5721 | 3.292
x1 = 0.6126 | 3.489
x1 = 0.6679 | 3.769
x1 = 0.7225 | 4.032
x1 = 0.7669 | 4.227
x1 = 0.8132 | 4.438
x1 = 0.8674 | 4.688
x1 = 0.9149 | 4.885
x1 = 0.9436 | 5.01
x1 = 0.9724 | 5.074

Cc1ccccc1N + ClC(Cl)(Cl)Cl
viscosity [mPa·s], 100 kPa
Conditions | x2 = 0.0901 | x2 = 0.1916 | x2 = 0.2917 | x2 = 0.3903 | x2 = 0.4988 | x2 = 0.6089 | x2 = 0.6981 | x2 = 0.7941 | x2 = 0.8847
298.15 K | 3.473 | 3.194 | 2.917 | 2.642 | 2.337 | 2.026 | 1.772 | 1.497 | 1.235
303.15 K | 3.049 | 2.812 | 2.575 | 2.34 | 2.079 | 1.812 | 1.593 | 1.356 | 1.13
308.15 K | 2.65 | 2.452 | 2.254 | 2.056 | 1.836 | 1.611 | 1.426 | 1.224 | 1.032
313.15 K | 2.34 | 2.172 | 2.003 | 1.834 | 1.646 | 1.452 | 1.292 | 1.118 | 0.951
318.15 K | 2.033 | 1.895 | 1.755 | 1.616 | 1.459 | 1.296 | 1.162 | 1.016 | 0.874

Nc1ccccc1Cl + ClC(Cl)(Cl)Cl
viscosity [mPa·s], 100 kPa
Conditions | x2 = 0.1011 | x2 = 0.1916 | x2 = 0.2901 | x2 = 0.3811 | x2 = 0.4923 | x2 = 0.5989 | x2 = 0.6911 | x2 = 0.7741 | x2 = 0.8897
298.15 K | 3.882 | 3.589 | 3.268 | 2.97 | 2.604 | 2.25 | 1.942 | 1.664 | 1.273
303.15 K | 3.532 | 3.269 | 2.981 | 2.713 | 2.382 | 2.063 | 1.785 | 1.533 | 1.179
308.15 K | 3.158 | 2.927 | 2.675 | 2.439 | 2.149 | 1.868 | 1.622 | 1.4 | 1.086
313.15 K | 2.837 | 2.634 | 2.411 | 2.203 | 1.947 | 1.699 | 1.482 | 1.284 | 1.005
318.15 K | 2.566 | 2.387 | 2.189 | 2.004 | 1.776 | 1.554 | 1.361 | 1.185 | 0.934

CCCCOCCOCCO + ClC(Cl)=C(Cl)Cl
298.15 K, 101.33 kPa
Conditions | viscosity [mPa·s]
x1 = 0.0092 | 0.859
x1 = 0.0253 | 0.883
x1 = 0.0385 | 0.91
x1 = 0.0481 | 0.929
x1 = 0.0583 | 0.95
x1 = 0.0816 | 1.001
x1 = 0.0932 | 1.03
x1 = 0.1188 | 1.09
x1 = 0.1559 | 1.186
x1 = 0.1903 | 1.289
x1 = 0.2322 | 1.413
x1 = 0.2748 | 1.557
x1 = 0.3127 | 1.691
x1 = 0.3556 | 1.851
x1 = 0.3911 | 2
x1 = 0.4295 | 2.16
x1 = 0.4585 | 2.288
x1 = 0.4917 | 2.445
x1 = 0.531 | 2.635
x1 = 0.575 | 2.845
x1 = 0.6181 | 3.066
x1 = 0.666 | 3.31
x1 = 0.7112 | 3.548
x1 = 0.7734 | 3.894
x1 = 0.8415 | 4.283
x1 = 0.8983 | 4.615
x1 = 0.929 | 4.805
x1 = 0.9482 | 4.918
x1 = 0.9696 | 5.061
x2 = 0.0169 | 5.131

CCCCOCCOCCO + ClC(Cl)Cl
298.15 K, 101.33 kPa
Conditions | viscosity [mPa·s]
x1 = 0.0036 | 0.538
x1 = 0.013 | 0.559
x1 = 0.0198 | 0.572
x1 = 0.0347 | 0.607
x1 = 0.0576 | 0.674
x1 = 0.0854 | 0.755
x1 = 0.1232 | 0.882
x1 = 0.1802 | 1.118
x1 = 0.2156 | 1.281
x1 = 0.2883 | 1.65
x1 = 0.3513 | 2.01
x1 = 0.427 | 2.46
x1 = 0.486 | 2.828
x1 = 0.539 | 3.148
x1 = 0.6168 | 3.591
x1 = 0.6945 | 4.021
x1 = 0.7358 | 4.19
x1 = 0.7844 | 4.415
x1 = 0.8159 | 4.545
x1 = 0.859 | 4.758
x1 = 0.9079 | 4.913
x1 = 0.94 | 5.021
x1 = 0.9514 | 5.04
x1 = 0.9582 | 5.061
x1 = 0.9656 | 5.083
x2 = 0.0054 | 5.185

Cc1cccc(C)c1 + ClC(Cl)Cl
298.15 K, 101 kPa
Conditions | viscosity [mPa·s]
x2 = 0.2254 | 0.5977
x2 = 0.4357 | 0.6026
x2 = 0.4615 | 0.6004
x2 = 0.5258 | 0.5981
x2 = 0.5786 | 0.5938
x2 = 0.6284 | 0.593
x2 = 0.6945 | 0.5876
x2 = 0.7272 | 0.5844

O=S1(=O)CCCC1 + ClCCCl
viscosity [mPa·s], 100 kPa
Conditions | x1 = 0.0168 | x1 = 0.1062 | x1 = 0.2045 | x1 = 0.3091 | x1 = 0.4077 | x1 = 0.5125 | x1 = 0.6483 | x1 = 0.8007 | x1 = 0.9708
303.15 K | 0.8741 | 1.693 | 2.594 | 3.559 | 4.475 | 5.452 | 6.725 | 8.157 | 9.753
308.15 K | 0.8027 | 1.515 | 2.303 | 3.149 | 3.949 | 4.803 | 5.911 | 7.157 | 8.551
313.15 K | 0.7524 | 1.384 | 2.086 | 2.837 | 3.545 | 4.3 | 5.28 | 6.382 | 7.617
